Test results published in publication PMC7541396 (Nature biotechnology, 2020).

Tests used:
TCR004 = format: cell-based, human; details: Supplementary Fig. 4b, n=3
TCR121 = assay: Mtb proteome screen and PPE protein stimulation with aAPC, TCR121; format: cell-based, human

Molecule | response of TCR004 to cell-free expressed protein (TCR004) | stimulation of TCR121 by whole PPE protein (TCR121)
CFP10: Mtb protein, cell-free expressed; TCR004 target | only responded to its target antigen CFP10 | –
PPE26: Mtb PPE protein, cell-free expressed (protein, UniProt Q79FK6 1-393, looked up) PPE family protein PPE26: MDFGALPPEVNSVRMYAGPGSAPMVAAASAWNGLAAELSSAATGYETVITQLSSEGWLGPASAAMAEAVAPYVAWMSAAAAQAEQAATQARAAAAAFEAAFAATVPPPLIAANRASLMQLISTNVFGQNTSAIAAAEAQYGEMWAQDSAAMYAYAGSSASASAVTPFSTPPQIANPTAQGTQAAAVATAAGTAQSTLTEMITGLPNALQSLTSPLLQSSNGPLSWLWQILFGTPNFPTSISALLTDLQPYASFFYNTEGLPYFSIGMGNNFIQSAKTLGLIGSAAPAAVAAAGDAAKGLPGLGGMLGGGPVAAGLGNAASVGKLSVPPVWSGPLPGSVTPGAAPLPVSTVSAAPEAAPGSLLGGLPLAGAGGAGAGPRYGFRPTVMARPPFAG | – | strong to modest stimulation
